≈ marks a conversion by molar mass, not a printed value.
Columns and labels:
Assay in all cases: In vitro antibacterial evaluation: minimum inhibitory concentration (MIC), broth dilution method
Format in all cases: cell-based
[1] = tested on: Escherichia coli; settings: 18 hours at 35° C.
Method in brief: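 Broth dilution per NCCLS M7-A2 in Muller-Hinton II […], inoculum 5×10^5 CFU/mL, antibiotic tested over 64-0.06 μg/mL. MIC is taken as the lowest concentration that inhibits growth. Panel includes recent clinical isolates resistant to methicillin, penicillin and/or vancomycin.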

[2] = tested on: Streptococcus sp.; settings: 18 hours at 35° C.
Method in brief: (§1)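 Inoculum: 5×10^5 CFU/mL. Range: 64-0.06 μg/mL. Medium: Muller-Hinton II […]; NCCLS M7-A2 broth dilution. Endpoint: lowest concentration inhibiting growth. Strains include methicillin-, penicillin- and/or vancomycin-resistant clinical isolates.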

[3] = tested on: Staphylococcus sp.
Method in brief: as §1

[4] = tested on: Enterococcus sp.; settings: 18 hours at 35° C.
Method in brief: as §1

[5] = broth dilution, inoculum 5×10^5 CFU/mL

MIC Escherichia coli (GC 4559) ([1]; Escherichia coli (GC 4559)): 64 µg/mL (≈ 43.1 µM)
MIC Escherichia coli (GC 4560) ([1]; Escherichia coli (GC 4560)): 2 µg/mL (≈ 1.35 µM)
MIC Streptococcus agalactiae (GC 4564) ([2]; Streptococcus agalactiae (GC 4564)): <0.12 µg/mL
MIC Streptococcus pneumoniae (ATCC 6301) ([2]; Streptococcus pneumoniae (ATCC 6301)): 0.25 µg/mL (≈ 0.169 µM)
MIC Streptococcus pneumoniae (GC 1894) ([2]; Streptococcus pneumoniae (GC 1894)): <0.12 µg/mL
MIC Streptococcus pneumoniae (GC 4565) ([2]; Streptococcus pneumoniae (GC 4565)): 0.25 µg/mL (≈ 0.169 µM)
MIC Streptococcus pyogenes (GC 4563) ([2]; Streptococcus pyogenes (GC 4563)): 0.25 µg/mL (≈ 0.169 µM)
MIC Streptococcus agalactiae (GC 4564) [2, 5]: <0.12 µg/mL
MIC Streptococcus pneumoniae (ATCC 6301) [2, 5]: 0.25 µg/mL (≈ 0.169 µM)
MIC Streptococcus pneumoniae (GC 1894) [2, 5]: <0.12 µg/mL
MIC Streptococcus pneumoniae (GC 4565) [2, 5]: 0.25 µg/mL (≈ 0.169 µM)
MIC Streptococcus pyogenes (GC 4563) [2, 5]: 0.25 µg/mL (≈ 0.169 µM)
MIC Staphylococcus aureus (ATCC 29213) ([3]; strain ATCC 29213): 2 µg/mL (≈ 1.35 µM)
MIC Staphylococcus aureus (GC 1131) ([3]; strain GC 1131): 4 µg/mL (≈ 2.7 µM)
MIC Staphylococcus aureus (GC 3051) ([3]; strain GC 3051): 2 µg/mL (≈ 1.35 µM)
MIC Staphylococcus aureus (GC 3053) ([3]; strain GC 3053): 4 µg/mL (≈ 2.7 µM)
MIC Staphylococcus aureus (GC 4541) ([3]; strain GC 4541): 1 µg/mL (≈ 0.674 µM)
MIC Staphylococcus aureus (GC 4542) ([3]; strain GC 4542): 4 µg/mL (≈ 2.7 µM)
MIC Staphylococcus aureus-SMITH (GC 4543) ([3]; strain GC 4543): 2 µg/mL (≈ 1.35 µM)
MIC Staphylococcus aureus (GC 4544) ([3]; strain GC 4544): 4 µg/mL (≈ 2.7 µM)
MIC Staphylococcus aureus (GC 4545) ([3]; strain GC 4545): 2 µg/mL (≈ 1.35 µM)
MIC Coagulase Negative Staphylococcus (GC 4547) ([3]; strain GC 4547): 2 µg/mL (≈ 1.35 µM)
MIC Coagulase Negative Staphylococcus (GC 4548) ([3]; strain GC 4548): 1 µg/mL (≈ 0.674 µM)
MIC Coagulase Negative Staphylococcus (GC 4549) ([3]; strain GC 4549): 1 µg/mL (≈ 0.674 µM)
MIC Coagulase Negative Staphylococcus (GC 4551) ([3]; strain GC 4551): 2 µg/mL (≈ 1.35 µM)
MIC Enterococcus avium (GC 4558) ([4]; Enterococcus avium (GC 4558)): 2 µg/mL (≈ 1.35 µM)
MIC Enterococcus faecalis (ATCC 29212) ([4]; Enterococcus faecalis (ATCC 29212)): 4 µg/mL (≈ 2.7 µM)
MIC Enterococcus faecalis (GC 2242) ([4]; Enterococcus faecalis (GC 2242)): 4 µg/mL (≈ 2.7 µM)
MIC Enterococcus faecalis (GC 2691) ([4]; Enterococcus faecalis (GC 2691)): 4 µg/mL (≈ 2.7 µM)
MIC Enterococcus faecalis (GC 3059) ([4]; Enterococcus faecalis (GC 3059)): 4 µg/mL (≈ 2.7 µM)
MIC Enterococcus faecalis (GC 4552) ([4]; Enterococcus faecalis (GC 4552)): 4 µg/mL (≈ 2.7 µM)
MIC Enterococcus faecalis (GC 4553) ([4]; Enterococcus faecalis (GC 4553)): 2 µg/mL (≈ 1.35 µM)
MIC Enterococcus faecalis (GC 4554) ([4]; Enterococcus faecalis (GC 4554)): 4 µg/mL (≈ 2.7 µM)
MIC Enterococcus faecalis (GC 6189) ([4]; Enterococcus faecalis (GC 6189)): 4 µg/mL (≈ 2.7 µM)
MIC Enterococcus faecium (GC 2243) ([4]; Enterococcus faecium (GC 2243)): 2 µg/mL (≈ 1.35 µM)
MIC Enterococcus faecium (GC 4556) ([4]; Enterococcus faecium (GC 4556)): 4 µg/mL (≈ 2.7 µM)
MIC Enterococcus faecium (GC 4557) ([4]; Enterococcus faecium (GC 4557)): 0.5 µg/mL (≈ 0.337 µM)
MIC Enterococcus avium (GC 4558) [4, 5]: 2 µg/mL (≈ 1.35 µM)
MIC Enterococcus faecalis (ATCC 29212) [4, 5]: 4 µg/mL (≈ 2.7 µM)
MIC Enterococcus faecalis (GC 2242) [4, 5]: 4 µg/mL (≈ 2.7 µM)
MIC Enterococcus faecalis (GC 2691) [4, 5]: 4 µg/mL (≈ 2.7 µM)
MIC Enterococcus faecalis (GC 3059) [4, 5]: 4 µg/mL (≈ 2.7 µM)
MIC Enterococcus faecalis (GC 4552) [4, 5]: 4 µg/mL (≈ 2.7 µM)
MIC Enterococcus faecalis (GC 4553) [4, 5]: 2 µg/mL (≈ 1.35 µM)
MIC Enterococcus faecalis (GC 4554) [4, 5]: 4 µg/mL (≈ 2.7 µM)
MIC Enterococcus faecalis (GC 6189) [4, 5]: 4 µg/mL (≈ 2.7 µM)
MIC Enterococcus faecium (GC 2243) [4, 5]: 2 µg/mL (≈ 1.35 µM)
MIC Enterococcus faecium (GC 4556) [4, 5]: 4 µg/mL (≈ 2.7 µM)
MIC Enterococcus faecium (GC 4557) [4, 5]: 0.5 µg/mL (≈ 0.337 µM)
SMILES: CCCCN1CC(C(O)C2NC(=O)C(C(O)C3CNC(=N)N3)NC(=O)C(Cc3ccc(OC4OC(CO)C(OC5OC6COC7(OC6C(O)C5O)C5CC6CC(C5)CC7C6)C(O)C4O)cc3)NC(=O)C(C(C)c3ccccc3)NC(=O)CNC(=O)C(CO)NC2=O)N(C2OC(CO)C(O)C(O)C2O)C1=N (stereo not drawn) [Example 224, Cyclo[glycyl-β-methylphenylalanyl-O-[4-O-[4,6-O-(2-adamantylidene)hexopyranosyl]hexopyranosyl]tyrosyl-3-(2-iminoimidazolidin-4-yl)seryl-3-(1-butyl-3-hexopyranosyl-2-iminoimidazolidin-4-yl)serylseryl]]
MIC Staphylococcus haemolyticus (GC 4546) ([3]; strain GC 4546): 1 µg/mL (≈ 0.674 µM)
